{"source": "patent US11851696B2", "about": "“Microorganisms and process for producing glycolic acid from pentoses and hexoses” (Institut National Des Sciences Appliquées De Toulouse, priority 2018, dated 2023)", "molecules": {"B1": {"name": "E. coli K12 MG1655 aldehyde dehydrogenase (glycolaldehyde dehydrogenase, AldA), polyhistidine-tagged (aldA-His), wild type, SEQ ID NO: 4 (Escherichia coli K-12) (protein)", "chain": "MSVPVQHPMYIDGQFVTWRGDAWIDVVNPATEAVISRIPDGQAEDARKAIDAAERAQPEWEALPAIERASWLRKISAGIRERASEISALIVEEGGKIQQLAEVEVAFTADYIDYMAEWARRYEGEIIQSDRPGENILLFKRALGVTTGILPWNFPFFLIARKMAPALLTGNTIVIKPSEFTPNNAIAFAKIVDEIGLPRGVFNLVLGRGETVGQELAGNPKVAMVSMTGSVSAGEKIMATAAKNITKVCLELGGKAPAIVMDDADLELAVKAIVDSRVINSGQVCNCAERVYVQKGIYDQFVNRLGEAMQAVQFGNPAERNDIAMGPLINAAALERVEQKVARAVEEGARVAFGGKAVEGKGYYYPPTLLLDVRQEMSIMHEETFGPVLPVVAFDTLEDAISMANDSDYGLTSSIYTQNLNVAMKAIKGLKFGETYINRENFEAMQGFHAGWRKSGIGGADGKHGLHEYLQTQVVYLQS"}, "B2": {"name": "E. coli K12 MG1655 fructose-6-phosphate aldolase (FSA, FSAA), polyhistidine-tagged (FSA-His), wild type, SEQ ID NO: 2 (Escherichia coli K-12) (protein)", "chain": "MELYLDTSDVVAVKALSRIFPLAGVTTNPSIIAAGKKPLDVVLPQLHEAMGGQGRLFAQVMATTAEGMVNDALKLRSIIADIVVKVPVTAEGLAAIKMLKAEGIPTLGTAVYGAAQGLLSALAGAEYVAPYVNRIDAQGGSGIQTVTDLHQLLKMHAPQAKVLAASFKTPRQALDCLLAGCESITLPLDVAQQMISYPAVDAAVAKFEQDWQGAFGRTSI"}}, "key": {"[1]": {"test_system": "fructose-6-phosphate aldolase (FSA)", "details": "aldolytic activity on D-arabinose-5-phosphate vs fructose-6-phosphate; cited from earlier work"}, "[2]": {"biological_target": "T1, E. coli K12 MG1655 aldehyde dehydrogenase (glycolaldehyde dehydrogenase, AldA), polyhistidine-tagged (aldA-His), wild type, SEQ ID NO: 4 (Escherichia coli, UniProt P25553)", "T1 sequence (P25553 1-479)": "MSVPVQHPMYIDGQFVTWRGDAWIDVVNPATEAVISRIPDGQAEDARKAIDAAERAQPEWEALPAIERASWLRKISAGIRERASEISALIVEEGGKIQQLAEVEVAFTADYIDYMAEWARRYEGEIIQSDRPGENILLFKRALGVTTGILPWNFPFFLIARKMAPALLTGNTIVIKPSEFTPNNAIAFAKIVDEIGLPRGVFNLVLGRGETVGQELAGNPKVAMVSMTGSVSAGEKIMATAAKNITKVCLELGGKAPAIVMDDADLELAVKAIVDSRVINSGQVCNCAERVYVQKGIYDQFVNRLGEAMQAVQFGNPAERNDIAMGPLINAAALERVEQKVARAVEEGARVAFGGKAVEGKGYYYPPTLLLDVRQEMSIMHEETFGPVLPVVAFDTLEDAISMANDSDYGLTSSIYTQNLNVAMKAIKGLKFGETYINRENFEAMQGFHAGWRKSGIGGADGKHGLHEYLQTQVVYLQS", "assay": "AldA (aldehyde dehydrogenase) activity on glycolaldehyde, NADH at 340 nm", "assay_type": "biochemical", "quoted_text": "To construct a system in vitro, the inventors have cloned the ORFs (“Open Reading Frames”) of the xylose isomerase (XylA), xylulokinase (XylB), arabinose isomerase (AraA), ribulose kinase (AraB), L-ribulose-5-phosphate 4-epimerase (AraD), ribulose-5-phosphate-3-epimerase (RPE), D-arabinose-5-phosphate isomerase (KdsD), fructose-6-phosphate aldolase (FSA corresponding to FSAA such as previously defined) and aldehyde dehydrogenase (AdA) of E. coli K12 MG1655 with a polyhistidine tag for a facilitated purification. […] The E. coli genomic DNA which served as on template is that of the strain K12 MG1655.\nA pre-culture in a LB (for “Luria-Bertani”) medium added with the antibiotic kanamycin is made overnight at 37° C. The pre-culture is used to seed a fresh culture of 200 mL of LB-Kanamycin at an optical density at 600 nm (OD600) of 0.1 (37° C., 200 rpm). When the OD600 is between 0.6 and 0.8, the expression of the protein of interest is induced by adding finally 1 mM IPTG. The proteins are expressed overnight at 16° C. The cells are collected as 50 ml fractions and centrifuged at 4 800 rpm for 15 min at 4° C. The cell pellets are preserved at −20° C. […]\nMeasurement of the aldehyde dehydrogenase (AldA) activity: this activity has been measured in the presence of 5 mM glycoaldehyde, 3 mM NAD^+ and 3 mM ATP. […]"}, "[3]": {"substrate": "O=CCO", "assay": "purified protein, by the assay type", "details": "other: substrate glycolaldehyde, 100 mM Tris, pH 7.5, 10 mM MgCl2, 37° C., 3 mM NAD+, 3 mM ATP"}, "[4]": {"substrate": "O=P(O)(O)OC[C@H]1OC(O)[C@@H](O)[C@@H]1O", "assay": "FSA (fructose-6P aldolase) activity on D-arabinose-5P, coupled to AldA or to TPI and G3PDH, NADH at 340 nm", "assay_type": "biochemical, Escherichia coli K12 MG1655", "details": "other: substrate D-arabinose-5P, 100 mM Tris, pH 7.5, 10 mM MgCl2, 37° C., coupled to AldA (2 mM NAD+) or TPI/G3PDH (0.4 mM NADH)", "description": "To construct a system in vitro, the inventors have cloned the ORFs (“Open Reading Frames”) of the xylose isomerase (XylA), xylulokinase (XylB), arabinose isomerase (AraA), ribulose kinase (AraB), L-ribulose-5-phosphate 4-epimerase (AraD), ribulose-5-phosphate-3-epimerase (RPE), D-arabinose-5-phosphate isomerase (KdsD), fructose-6-phosphate aldolase (FSA corresponding to FSAA such as previously defined) and aldehyde dehydrogenase (AdA) of E. coli K12 MG1655 with a polyhistidine tag for a facilitated purification. The oligonucleotides used for amplifying ORFS of the E. coli enzymes are listed in Table 3 below, the sequences SEQ ID NO: making reference to the appended sequence listing. The E. coli genomic DNA which served as on template is that of the strain K12 MG1655.\nThe plasmids for the expression of the C-terminal polyhistidine tagged proteins XylA, XylB, AraA, AraB, AraD, AraB, Rpe, KdsD, FSA, AdA have been constructed by HiFi Assembly® (NEB) with pET28a as a receiving vector. pET28a has been linearised beforehand with the restriction enzymes HindIII and BamHI (NEB) (Table 4). The E. coli strain NEB5®, derived from DH5 alpha, has been used for cloning and storing the different plasmids.\nAll the proteins expressed are soluble and have been produced from the expression vector pET28a transformed in an E. coli strain BL21 (DE3). […]"}}, "data": [{"molecule": "O=P(O)(O)OC[C@H]1OC(O)[C@@H](O)[C@@H]1O", "note": "(stereo partly drawn) [D-arabinose-5P, D-arabinose-5-phosphate]", "values": [{"measurement": "affinity (times higher than for fructose-6-phosphate)", "setting": "[1]", "value": 10, "unit": "times"}]}, {"molecule": "O=CCO", "note": "[glycolaldehyde]", "values": [{"measurement": "Vmax", "setting": "[2]; substrate glycolaldehyde (5 mM glycoaldehyde in method), 100 mM Tris, pH 7.5, 10 mM MgCl2, 37° C., 3 mM NAD+, 3 mM ATP", "value": "1.16 ± 0.31", "unit": "U mg^−1"}, {"measurement": "Vmax/Km", "setting": "[2]; substrate glycolaldehyde, pH 7.5, 37° C.", "value": "5 552 .10^−6 min^−1 mg^−1"}]}, {"molecule": "B1", "values": [{"measurement": "Km", "setting": "[3]", "value": "0.21 ± 0.05", "unit": "mM"}]}, {"molecule": "B2", "values": [{"measurement": "Km", "setting": "[4]", "value": "0.652 ± 0.15", "unit": "mM"}, {"measurement": "Vmax", "setting": "[4]", "value": 0.26, "unit": "µmol/min/mg"}]}]}
